# In PubChem BioAssay (NCI):
#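 Tested at 5 concentrations; 48 h exposure; 96-well plates; endpoints linearly interpolated, else capped at highest concentration. GI50 = concentration required for 50% inhibition of growth. TGI: total growth inhibition.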
# Columns and labels:
# Experiment in all cases: NCI tumour cell line growth inhibition, 48 h
# SF-295 CNS = test system: SF-295 CNS
# HS 578T breast = test system: HS 578T breast
# RPMI-8226 leukemia = test system: RPMI-8226 leukemia
# HT29 colon = test system: HT29 colon
# MALME-3M melanoma = test system: MALME-3M melanoma
# NCI-H460 lung = test system: NCI-H460 lung
# MDA-MB-231 breast = test system: MDA-MB-231 breast
# LOX IMVI melanoma = test system: LOX IMVI melanoma
# PC-3 prostate = test system: PC-3 prostate
# SNB-75 CNS = test system: SNB-75 CNS
# EKVX NSCLC = test system: EKVX NSCLC
# UACC-62 melanoma = test system: UACC-62 melanoma
# HCC-2998 colon = test system: HCC-2998 colon
# OVCAR-5 ovarian = test system: OVCAR-5 ovarian
# KM12 colon = test system: KM12 colon
# SNB-19 CNS = test system: SNB-19 CNS
# M14 melanoma = test system: M14 melanoma
# TK-10 renal = test system: TK-10 renal
# U251 CNS = test system: U251 CNS
# SF-268 CNS = test system: SF-268 CNS
# CCRF-CEM leukemia = test system: CCRF-CEM leukemia
# ACHN renal = test system: ACHN renal
# SK-MEL-5 melanoma = test system: SK-MEL-5 melanoma
# SF-539 CNS = test system: SF-539 CNS
# NCI-H23 lung = test system: NCI-H23 lung
# MOLT-4 leukemia = test system: MOLT-4 leukemia
# MDA-MB-468 breast = test system: MDA-MB-468 breast
# NCI-H226 lung = test system: NCI-H226 lung
# RXF 393 renal = test system: RXF 393 renal
# A498 renal = test system: A498 renal
# SR leukemia = test system: SR leukemia
# HOP-62 NSCLC = test system: HOP-62 NSCLC
# MDA-MB-435 = test system: MDA-MB-435
# HCT-116 colon = test system: HCT-116 colon
# SK-OV-3 ovarian = test system: SK-OV-3 ovarian
# 786-0 renal = test system: 786-0 renal
# HCT-15 colon = test system: HCT-15 colon
# HOP-92 NSCLC = test system: HOP-92 NSCLC
# NCI/ADR-RES ovarian = test system: NCI/ADR-RES ovarian
# IGROV1 ovarian = test system: IGROV1 ovarian
# K-562 leukemia = test system: K-562 leukemia
# DU-145 prostate = test system: DU-145 prostate
# CAKI-1 renal = test system: CAKI-1 renal
# COLO 205 colon = test system: COLO 205 colon
# SN12C renal = test system: SN12C renal
# HL-60(TB) leukemia = test system: HL-60(TB) leukemia
# BT-549 breast = test system: BT-549 breast
# A549 NSCLC = test system: A549 NSCLC
# MCF7 breast = test system: MCF7 breast
# UO-31 renal = test system: UO-31 renal
# T-47D breast = test system: T-47D breast
# OVCAR-3 ovarian = test system: OVCAR-3 ovarian
# SK-MEL-2 melanoma = test system: SK-MEL-2 melanoma
# UACC-257 melanoma = test system: UACC-257 melanoma
# OVCAR-8 ovarian = test system: OVCAR-8 ovarian
# SK-MEL-28 melanoma = test system: SK-MEL-28 melanoma
# OVCAR-4 ovarian = test system: OVCAR-4 ovarian
# SW-620 colon = test system: SW-620 colon
# NCI-H522 lung = test system: NCI-H522 lung
structure (smiles),measurement,setting,value
Clc1ccc(-c2nc3ccc(-c4nnc(SCc5ccccc5)o4)cc3[nH]2)cc1,GI50,SF-295 CNS,5.41 µM
same,TGI,SF-295 CNS,52.3 µM
same,GI50,HS 578T breast,12.2 µM
same,TGI,HS 578T breast,> 100 µM
same,GI50,RPMI-8226 leukemia,8.07 µM
same,TGI,RPMI-8226 leukemia,> 100 µM
same,GI50,HT29 colon,16.9 µM
same,TGI,HT29 colon,> 100 µM
same,GI50,MALME-3M melanoma,16.1 µM
same,TGI,MALME-3M melanoma,83.2 µM
same,GI50,NCI-H460 lung,5.37 µM
same,TGI,NCI-H460 lung,> 100 µM
same,GI50,MDA-MB-231 breast,5.36 µM
same,TGI,MDA-MB-231 breast,36.1 µM
same,GI50,LOX IMVI melanoma,4.95 µM
same,TGI,LOX IMVI melanoma,40.7 µM
same,GI50,PC-3 prostate,6.21 µM
same,TGI,PC-3 prostate,> 100 µM
same,GI50,SNB-75 CNS,2.13 µM
same,TGI,SNB-75 CNS,22.9 µM
same,GI50,EKVX NSCLC,4.18 µM
same,TGI,EKVX NSCLC,39 µM
same,GI50,UACC-62 melanoma,13.8 µM
same,TGI,UACC-62 melanoma,> 100 µM
same,GI50,HCC-2998 colon,19.9 µM
same,TGI,HCC-2998 colon,> 100 µM
same,GI50,OVCAR-5 ovarian,5.87 µM
same,TGI,OVCAR-5 ovarian,97.1 µM
same,GI50,KM12 colon,17.6 µM
same,TGI,KM12 colon,> 100 µM
same,GI50,SNB-19 CNS,5.85 µM
same,TGI,SNB-19 CNS,> 100 µM
same,GI50,M14 melanoma,25.5 µM
same,TGI,M14 melanoma,> 100 µM
same,GI50,TK-10 renal,> 100 µM
same,TGI,TK-10 renal,> 100 µM
same,GI50,U251 CNS,2.69 µM
same,TGI,U251 CNS,6.8 µM
same,GI50,SF-268 CNS,7.59 µM
same,TGI,SF-268 CNS,> 100 µM
same,GI50,CCRF-CEM leukemia,4.91 µM
same,TGI,CCRF-CEM leukemia,> 100 µM
same,GI50,ACHN renal,14.5 µM
same,TGI,ACHN renal,> 100 µM
same,GI50,SK-MEL-5 melanoma,4.87 µM
same,TGI,SK-MEL-5 melanoma,33.4 µM
same,GI50,SF-539 CNS,2.98 µM
same,TGI,SF-539 CNS,10.2 µM
same,GI50,NCI-H23 lung,6.21 µM
same,TGI,NCI-H23 lung,74.2 µM
same,GI50,MOLT-4 leukemia,4.71 µM
same,TGI,MOLT-4 leukemia,> 100 µM
same,GI50,MDA-MB-468 breast,3.32 µM
same,TGI,MDA-MB-468 breast,15.3 µM
same,GI50,NCI-H226 lung,7.54 µM
same,TGI,NCI-H226 lung,36 µM
same,GI50,RXF 393 renal,3.58 µM
same,TGI,RXF 393 renal,48.6 µM
same,GI50,A498 renal,18.2 µM
same,TGI,A498 renal,42.5 µM
same,GI50,SR leukemia,5.86 µM
same,TGI,SR leukemia,> 100 µM
same,GI50,HOP-62 NSCLC,16.4 µM
same,TGI,HOP-62 NSCLC,86.6 µM
same,GI50,MDA-MB-435,8.65 µM
same,TGI,MDA-MB-435,> 100 µM
same,GI50,HCT-116 colon,3.25 µM
same,TGI,HCT-116 colon,> 100 µM
same,GI50,SK-OV-3 ovarian,23 µM
same,TGI,SK-OV-3 ovarian,> 100 µM
same,GI50,786-0 renal,4.03 µM
same,TGI,786-0 renal,> 100 µM
same,GI50,HCT-15 colon,3.75 µM
same,TGI,HCT-15 colon,27.4 µM
same,GI50,HOP-92 NSCLC,11.5 µM
same,TGI,HOP-92 NSCLC,48.3 µM
same,GI50,NCI/ADR-RES ovarian,4.09 µM
same,TGI,NCI/ADR-RES ovarian,21.5 µM
same,GI50,IGROV1 ovarian,7.37 µM
same,TGI,IGROV1 ovarian,> 100 µM
same,GI50,K-562 leukemia,4.78 µM
same,TGI,K-562 leukemia,> 100 µM
same,GI50,DU-145 prostate,57 µM
same,TGI,DU-145 prostate,> 100 µM
same,GI50,CAKI-1 renal,16.1 µM
same,TGI,CAKI-1 renal,54.7 µM
same,GI50,COLO 205 colon,15.5 µM
same,TGI,COLO 205 colon,> 100 µM
same,GI50,SN12C renal,1.87 µM
same,TGI,SN12C renal,4.05 µM
same,GI50,HL-60(TB) leukemia,26.2 µM
same,TGI,HL-60(TB) leukemia,> 100 µM
same,GI50,BT-549 breast,24 µM
same,TGI,BT-549 breast,> 100 µM
same,GI50,A549 NSCLC,3.78 µM
same,TGI,A549 NSCLC,> 100 µM
same,GI50,MCF7 breast,3.08 µM
same,TGI,MCF7 breast,> 100 µM
same,GI50,UO-31 renal,9.18 µM
same,TGI,UO-31 renal,> 100 µM
same,GI50,T-47D breast,3.05 µM
same,TGI,T-47D breast,41.3 µM
same,GI50,OVCAR-3 ovarian,2.7 µM
same,TGI,OVCAR-3 ovarian,7.61 µM
same,GI50,SK-MEL-2 melanoma,16.2 µM
same,TGI,SK-MEL-2 melanoma,> 100 µM
same,GI50,UACC-257 melanoma,22.8 µM
same,TGI,UACC-257 melanoma,> 100 µM
same,GI50,OVCAR-8 ovarian,6.49 µM
same,TGI,OVCAR-8 ovarian,27.5 µM
same,GI50,SK-MEL-28 melanoma,36.9 µM
same,TGI,SK-MEL-28 melanoma,> 100 µM
same,GI50,OVCAR-4 ovarian,3.87 µM
same,TGI,OVCAR-4 ovarian,21.9 µM
same,GI50,SW-620 colon,3.41 µM
same,TGI,SW-620 colon,43.2 µM
same,GI50,NCI-H522 lung,2.83 µM
same,TGI,NCI-H522 lung,10.3 µM
